PMC5218480 (PLoS ONE, 2017)

Tested on: MV-4-11 cells
Assay: Gene expression microarray analysis (Affymetrix PrimeView) and GSEA
Assay type: cell-based, human
Design: RFU PODN (11730768_x_at) / Fold change /veh PODN (11730768_x_at) / RFU LINC00158 (11744669_a_at) / Fold change /veh LINC00158 (11744669_a_at) / RFU DUSP10 (11751237_a_at) / Fold change /veh DUSP10 (11751237_a_at) / RFU ID3 (11757404_x_at) / Fold change /veh ID3 (11757404_x_at) / RFU PLEKHG5 (11737974_s_at) / Fold change /veh PLEKHG5 (11737974_s_at) / RFU LRRC4B (11730491_at) / Fold change /veh LRRC4B (11730491_at) / RFU GIMAP4 (11747438_a_at) / Fold change /veh GIMAP4 (11747438_a_at) / RFU KRT8 (11758183_x_at) / Fold change /veh KRT8 (11758183_x_at) / RFU CNN1 (11734310_a_at) / Fold change /veh CNN1 (11734310_a_at) / RFU VPS37D (11726825_at) / Fold change /veh VPS37D (11726825_at) / RFU C10orf10 (11716522_x_at) / Fold change /veh C10orf10 (11716522_x_at) / RFU KIR2DL2 /// KIR2DL4 /// KIR2DL5A /// KIR2DL5B /// KIR2DS1 /// KIR2DS2 /// KIR2DS3 /// KIR2DS4 /// KIR3DL3 /// KIR3DL3 /// KIR3DS1 (11738374_at) / Fold change /veh KIR2DL2 /// KIR2DL4 /// KIR2DL5A /// KIR2DL5B /// KIR2DS1 /// KIR2DS2 /// KIR2DS3 /// KIR2DS4 /// KIR3DL3 /// KIR3DL3 /// KIR3DS1 (11738374_at) / RFU C1QL1 (11718748_at) / Fold change /veh C1QL1 (11718748_at) / RFU TMPRSS4 (11747572_a_at) / Fold change /veh TMPRSS4 (11747572_a_at) / RFU HAMP (11756126_x_at) / Fold change /veh HAMP (11756126_x_at) / RFU RNFT2 (11725882_a_at) / Fold change /veh RNFT2 (11725882_a_at) / RFU NR4A2 (11747474_a_at) / Fold change /veh NR4A2 (11747474_a_at) / RFU ABCC12 (11746883_a_at) / Fold change /veh ABCC12 (11746883_a_at) / RFU TMEM136 (11760407_x_at) / Fold change /veh TMEM136 (11760407_x_at) / RFU CLDN22 /// WWC2 (11732394_at) / Fold change /veh CLDN22 /// WWC2 (11732394_at) / RFU HLA-DPB1 (11760878_x_at) / Fold change /veh HLA-DPB1 (11760878_x_at) / RFU SPINT1 (11716480_a_at) / Fold change /veh SPINT1 (11716480_a_at) / RFU GAP43 (11754022_s_at) / Fold change /veh GAP43 (11754022_s_at) / RFU A4GNT (11735810_at) / Fold change /veh A4GNT (11735810_at) / RFU PRB3 (11715151_x_at) / Fold change /veh PRB3 (11715151_x_at) / RFU TUBB4B (11761932_at) / Fold change /veh TUBB4B (11761932_at) / RFU CAPN14 (11732068_a_at) / Fold change /veh CAPN14 (11732068_a_at) / RFU TMCC2 (11721928_a_at) / Fold change /veh TMCC2 (11721928_a_at) / RFU IRGQ (11745062_a_at) / Fold change /veh IRGQ (11745062_a_at) / RFU FAM174B (11720279_a_at) / Fold change /veh FAM174B (11720279_a_at) / RFU TMPRSS4 (11748680_a_at) / Fold change /veh TMPRSS4 (11748680_a_at) / RFU FAM212B (11763350_a_at) / Fold change /veh FAM212B (11763350_a_at) / RFU PLEKHG5 (11743358_a_at) / Fold change /veh PLEKHG5 (11743358_a_at) / RFU ZSCAN30 (11745921_a_at) / Fold change /veh ZSCAN30 (11745921_a_at) / RFU CMKLR1 (11741424_a_at) / Fold change /veh CMKLR1 (11741424_a_at) / RFU LOC101060620 /// MAPK8IP1 (11723275_at) / Fold change /veh LOC101060620 /// MAPK8IP1 (11723275_at) / RFU SPTSSB (11747773_x_at) / Fold change /veh SPTSSB (11747773_x_at) / RFU PRSS12 (11739890_at) / Fold change /veh PRSS12 (11739890_at) / RFU BIN1 (11741810_x_at) / Fold change /veh BIN1 (11741810_x_at) / RFU WNT11 (11732464_a_at) / Fold change /veh WNT11 (11732464_a_at) / RFU C10orf10 (11716521_a_at) / Fold change /veh C10orf10 (11716521_a_at) / RFU C5orf56 (11738089_at) / Fold change /veh C5orf56 (11738089_at) / RFU CYB561 (11721691_x_at) / Fold change /veh CYB561 (11721691_x_at) / RFU ANKRD19P (11752326_a_at) / Fold change /veh ANKRD19P (11752326_a_at) / RFU OR2T12 /// OR2T33 /// OR2T8 (11738714_s_at) / Fold change /veh OR2T12 /// OR2T33 /// OR2T8 (11738714_s_at) / RFU VCAN (11748164_a_at) / Fold change /veh VCAN (11748164_a_at) / RFU JSRP1 (11732532_at) / Fold change /veh JSRP1 (11732532_at) / RFU KRTAP10-11 (11738290_x_at) / Fold change /veh KRTAP10-11 (11738290_x_at) / RFU MYO3A (11730013_a_at) / Fold change /veh MYO3A (11730013_a_at) / RFU EBF3 (11725865_a_at) / Fold change /veh EBF3 (11725865_a_at) / RFU CAMK2N1 (11719241_x_at) / Fold change /veh CAMK2N1 (11719241_x_at) / RFU C5orf56 (11738088_a_at) / Fold change /veh C5orf56 (11738088_a_at) / RFU OLFML3 (11715873_a_at) / Fold change /veh OLFML3 (11715873_a_at) / RFU LOC100653217 /// NTM (11731650_a_at) / Fold change /veh LOC100653217 /// NTM (11731650_a_at) / RFU MAPK11 (11762145_a_at) / Fold change /veh MAPK11 (11762145_a_at) / RFU FIZ1 (11724087_x_at) / Fold change /veh FIZ1 (11724087_x_at) / RFU OASL (11726364_x_at) / Fold change /veh OASL (11726364_x_at) / RFU SOX15 (11748057_x_at) / Fold change /veh SOX15 (11748057_x_at) / RFU CD79A (11719716_a_at) / Fold change /veh CD79A (11719716_a_at) / RFU HIST1H1D (11736915_at) / Fold change /veh HIST1H1D (11736915_at) / RFU CASKIN2 (11723855_a_at) / Fold change /veh CASKIN2 (11723855_a_at) / RFU LOC730098 (11760151_x_at) / Fold change /veh LOC730098 (11760151_x_at) / RFU OR4N2 (11742367_at) / Fold change /veh OR4N2 (11742367_at) / RFU PRRT2 (11749266_a_at) / Fold change /veh PRRT2 (11749266_a_at) / RFU SNX32 (11753110_a_at) / Fold change /veh SNX32 (11753110_a_at) / RFU CDHR5 (11726645_a_at) / Fold change /veh CDHR5 (11726645_a_at) / RFU RCAN1 (11760418_a_at) / Fold change /veh RCAN1 (11760418_a_at) / RFU FAM167A (11723789_a_at) / Fold change /veh FAM167A (11723789_a_at) / RFU FAM26E (11764081_at) / Fold change /veh FAM26E (11764081_at) / RFU ISYNA1 (11749810_s_at) / Fold change /veh ISYNA1 (11749810_s_at) / RFU ACY1 (11761880_at) / Fold change /veh ACY1 (11761880_at) / RFU 11764098_at / Fold change /veh 11764098_at / RFU SAMD14 (11745864_x_at) / Fold change /veh SAMD14 (11745864_x_at) / RFU NPB (11741838_a_at) / Fold change /veh NPB (11741838_a_at) / RFU TMPRSS6 (11731388_a_at) / Fold change /veh TMPRSS6 (11731388_a_at) / RFU KRTAP10-2 (11738614_at) / Fold change /veh KRTAP10-2 (11738614_at) / RFU ARHGAP8 /// PRR5-ARHGAP8 (11727945_x_at) / Fold change /veh ARHGAP8 /// PRR5-ARHGAP8 (11727945_x_at) / RFU KRTAP5-7 /// NADSYN1 (11734609_at) / Fold change /veh KRTAP5-7 /// NADSYN1 (11734609_at) / RFU RASL12 (11751679_a_at) / Fold change /veh RASL12 (11751679_a_at) / RFU CDKN2B (11736163_a_at) / Fold change /veh CDKN2B (11736163_a_at) / RFU PRF1 (11729649_at) / Fold change /veh PRF1 (11729649_at) / RFU, ZNF638 /// ZNF638-IT1 / Fold change vs veh, ZNF638 /// ZNF638-IT1 / RFU, PANK3 / Fold change vs veh, PANK3 / RFU, SH3YL1 / Fold change vs veh, SH3YL1 / RFU, ZEB2 / Fold change vs veh, ZEB2 / RFU, NRIP1 / Fold change vs veh, NRIP1 / RFU, PTTG1IP / Fold change vs veh, PTTG1IP / RFU, CAPN2 / Fold change vs veh, CAPN2 / RFU, MED14 / Fold change vs veh, MED14 / RFU, SNORA58 / Fold change vs veh, SNORA58 / RFU, C1orf63 / Fold change vs veh, C1orf63 / RFU, LRRFIP1 / Fold change vs veh, LRRFIP1 / RFU, NDUFAF7 / Fold change vs veh, NDUFAF7 / RFU, SLC12A2 / Fold change vs veh, SLC12A2 / RFU, IBTK / Fold change vs veh, IBTK / RFU, ESF1 / Fold change vs veh, ESF1 / Fold change vs veh, TMEM50B / RFU, TAOK1 / Fold change vs veh, TAOK1 / RFU, ACBD3 / Fold change vs veh, ACBD3 / RFU, TMA16 / Fold change vs veh, TMA16 / RFU, RWDD3 / Fold change vs veh, RWDD3 / RFU, BCAT1 / Fold change vs veh, BCAT1 / RFU, EDEM3 / Fold change vs veh, EDEM3 / RFU, TMEM33 / Fold change vs veh, TMEM33 / RFU, WDR75 / Fold change vs veh, WDR75 / RFU, AHCTF1 / Fold change vs veh, AHCTF1 / RFU, TFRC / Fold change vs veh, TFRC / RFU, ZDHHC17 / Fold change vs veh, ZDHHC17 / RFU, NOM1 / Fold change vs veh, NOM1 / RFU, ARL8B / Fold change vs veh, ARL8B / RFU, ZBTB11 / Fold change vs veh, ZBTB11 / RFU, TAMM41 / Fold change vs veh, TAMM41 / RFU, KIAA1704 /// LOC100996395 / Fold change vs veh, KIAA1704 /// LOC100996395 / RFU, ING1 / Fold change vs veh, ING1 / RFU, TRMT61B / Fold change vs veh, TRMT61B / RFU, FUBP3 / Fold change vs veh, FUBP3 / RFU, TP53 / Fold change vs veh, TP53 / RFU, TNKS2 / Fold change vs veh, TNKS2 / RFU, ZFP14 / Fold change vs veh, ZFP14 / RFU, ACTR2 / Fold change vs veh, ACTR2 / RFU, PPP3R1 / Fold change vs veh, PPP3R1 / RFU, PIK3R1 / Fold change vs veh, PIK3R1 / RFU, HNRNPA1 / Fold change vs veh, HNRNPA1 / RFU, RNF170 / Fold change vs veh, RNF170 / RFU, ZNF28 / Fold change vs veh, ZNF28 / RFU, RNGTT / Fold change vs veh, RNGTT / RFU, OGT / Fold change vs veh, OGT / RFU, BRD1 / Fold change vs veh, BRD1 / RFU, MARS / Fold change vs veh, MARS / RFU, ZNF655 / Fold change vs veh, ZNF655 / RFU, FAHD1 / Fold change vs veh, FAHD1 / RFU, BDP1 / Fold change vs veh, BDP1 / RFU, LRRCC1 / Fold change vs veh, LRRCC1 / RFU, ARID1A / Fold change vs veh, ARID1A / RFU, ZNF146 / Fold change vs veh, ZNF146 / RFU, ZNF330 / Fold change vs veh, ZNF330 / RFU, GPN3 / Fold change vs veh, GPN3 / RFU, C9orf123 / Fold change vs veh, C9orf123 / RFU, N4BP2L2 / Fold change vs veh, N4BP2L2 / RFU, ARFIP1 / Fold change vs veh, ARFIP1 / RFU, FAM179B / Fold change vs veh, FAM179B / RFU, BCL10 / Fold change vs veh, BCL10 / RFU, UHRF1BP1L / Fold change vs veh, UHRF1BP1L / RFU, BET1 / Fold change vs veh, BET1 / RFU, CNOT2 / Fold change vs veh, CNOT2 / RFU, ZNF268 / Fold change vs veh, ZNF268 / Fold change vs veh, ZNF507 / RFU, DGCR2 / Fold change vs veh, DGCR2 / RFU, WDSUB1 / Fold change vs veh, WDSUB1 / Fold change vs veh, HSP90B1 /// MIR3652 / RFU, ADSS / Fold change vs veh, ADSS / RFU, GK / Fold change vs veh, GK / RFU, ZNF148 / Fold change vs veh, ZNF148 / RFU, TAF9 / Fold change vs veh, TAF9 / RFU, SLC1A5 / Fold change vs veh, SLC1A5 / RFU, SLMO2 / Fold change vs veh, SLMO2 / RFU, ABCC4 / Fold change vs veh, ABCC4 / RFU, LOC101060439 /// RAP1B / Fold change vs veh, LOC101060439 /// RAP1B / RFU, RFX7 / Fold change vs veh, RFX7 / RFU, GTPBP10 / Fold change vs veh, GTPBP10 / RFU, CNEP1R1 / Fold change vs veh, CNEP1R1 / RFU, BIVM-ERCC5 /// ERCC5 / Fold change vs veh, BIVM-ERCC5 /// ERCC5 / RFU, ILF3 / Fold change vs veh, ILF3 / RFU 11762660_at / Fold change /veh 11762660_at / RFU VCAN (11757783_s_at) / Fold change /veh VCAN (11757783_s_at) / RFU DDX43 (11728927_at) / Fold change /veh DDX43 (11728927_at) / RFU KRT8 (11758188_x_at) / Fold change /veh KRT8 (11758188_x_at) / RFU NKD1 (11759106_at) / Fold change /veh NKD1 (11759106_at) / RFU SRD5A1 (11742802_a_at) / Fold change /veh SRD5A1 (11742802_a_at) / RFU TPSAB1 /// TPSB2 (11721975_s_at) / Fold change /veh TPSAB1 /// TPSB2 (11721975_s_at) / RFU GSTM3 (11746129_a_at) / Fold change /veh GSTM3 (11746129_a_at) / RFU IL23R (11737362_x_at) / Fold change /veh IL23R (11737362_x_at) / RFU TMEM51 (11727254_a_at) / Fold change /veh TMEM51 (11727254_a_at) / RFU PIWIL2 (11732686_x_at) / Fold change /veh PIWIL2 (11732686_x_at) / RFU ORM1 (11744905_x_at) / Fold change /veh ORM1 (11744905_x_at) / RFU CCDC152 (11743942_at) / Fold change /veh CCDC152 (11743942_at) / RFU ECM1 (11717891_a_at) / Fold change /veh ECM1 (11717891_a_at) / RFU IL23R (11748794_a_at) / Fold change /veh IL23R (11748794_a_at) / RFU TNFAIP8L3 (11732012_x_at) / Fold change /veh TNFAIP8L3 (11732012_x_at) / RFU MBOAT4 (11741988_at) / Fold change /veh MBOAT4 (11741988_at) / RFU 11764193_at / Fold change /veh 11764193_at / RFU TMEM53 (11763286_at) / Fold change /veh TMEM53 (11763286_at) / RFU MAGEB2 (11727129_at) / Fold change /veh MAGEB2 (11727129_at) / RFU TMEM200A (11744735_a_at) / Fold change /veh TMEM200A (11744735_a_at) / RFU CCDC152 (11751479_a_at) / Fold change /veh CCDC152 (11751479_a_at) / RFU FAM211A (11726209_a_at) / Fold change /veh FAM211A (11726209_a_at) / RFU RGS16 (11746705_a_at) / Fold change /veh RGS16 (11746705_a_at) / RFU VCAN (11755009_s_at) / Fold change /veh VCAN (11755009_s_at) / RFU RHOB (11743442_s_at) / Fold change /veh RHOB (11743442_s_at) / RFU RGS16 (11720943_a_at) / Fold change /veh RGS16 (11720943_a_at) / RFU RGS16 (11720944_at) / Fold change /veh RGS16 (11720944_at) / RFU, VPS4B / Fold change vs veh, VPS4B / RFU, CREB1 / Fold change vs veh, CREB1 / RFU, DNAJC13 / Fold change vs veh, DNAJC13 / RFU, GNAQ / Fold change vs veh, GNAQ / RFU, CDK5R1 / Fold change vs veh, CDK5R1 / RFU, ZRANB3 / Fold change vs veh, ZRANB3 / RFU, CUL4A / Fold change vs veh, CUL4A / RFU, CCNY / Fold change vs veh, CCNY / RFU, UFL1 / Fold change vs veh, UFL1 / RFU, COG3 / Fold change vs veh, COG3 / RFU, DIAPH2 / Fold change vs veh, DIAPH2 / RFU, SKA2 / Fold change vs veh, SKA2 / RFU, AFF3 / Fold change vs veh, AFF3 / RFU, LMF1 / Fold change vs veh, LMF1 / RFU, IPO11 / Fold change vs veh, IPO11 / RFU, DFFB / Fold change vs veh, DFFB / RFU, FOXP1 / Fold change vs veh, FOXP1 / RFU, CARD8 / Fold change vs veh, CARD8 / RFU, STRN3 / Fold change vs veh, STRN3 / RFU, ADK / Fold change vs veh, ADK / RFU, RASSF2 / Fold change vs veh, RASSF2 / RFU, WIPF1 / Fold change vs veh, WIPF1 / RFU, LARP1B / Fold change vs veh, LARP1B / RFU, RASA1 / Fold change vs veh, RASA1 / RFU, RB1 / Fold change vs veh, RB1 / RFU, PPFIA1 / Fold change vs veh, PPFIA1 / RFU, MAT2A / Fold change vs veh, MAT2A / RFU, CCT5 / Fold change vs veh, CCT5 / RFU, WDR92 / Fold change vs veh, WDR92 / RFU, CUX1 / Fold change vs veh, CUX1 / RFU, TTC7A / Fold change vs veh, TTC7A / RFU, TMEM135 / Fold change vs veh, TMEM135 / RFU, DEPTOR / Fold change vs veh, DEPTOR / RFU, CPM / Fold change vs veh, CPM / RFU, DNAJB6 / Fold change vs veh, DNAJB6 / RFU, CACNA2D3 / Fold change vs veh, CACNA2D3 / RFU, DTX4 / Fold change vs veh, DTX4 / RFU, TFCP2 / Fold change vs veh, TFCP2 / RFU, GMCL1 /// GMCL1P1 / Fold change vs veh, GMCL1 /// GMCL1P1 / RFU, AEBP2 / Fold change vs veh, AEBP2 / RFU, SNHG1 /// SNORD22 /// SNORD25 /// SNORD26 /// SNORD27 /// SNORD28 /// SNORD29 /// SNORD31 / Fold change vs veh, SNHG1 /// SNORD22 /// SNORD25 /// SNORD26 /// SNORD27 /// SNORD28 /// SNORD29 /// SNORD31 / Fold change (Aza/veh), C12orf56 (ProbeSet 11735607_a_at) / Fold change (ACY-1035/veh), C12orf56 (ProbeSet 11735607_a_at) / Fold change (Aza/veh), FGFR1OP (ProbeSet 11751329_s_at) / Fold change (ACY-1035/veh), FGFR1OP (ProbeSet 11751329_s_at) / Fold change (Aza/veh), VPS36 (ProbeSet 11739960_a_at) / Fold change (ACY-1035/veh), VPS36 (ProbeSet 11739960_a_at) / RFU SYPL1 (11715823_x_at) / Fold change /veh SYPL1 (11715823_x_at) / RFU IGFBP7 (11715501_s_at) / Fold change /veh IGFBP7 (11715501_s_at) / RFU REEP3 (11722064_at) / Fold change /veh REEP3 (11722064_at) / RFU IGLL1 (11728026_x_at) / Fold change /veh IGLL1 (11728026_x_at): dose or concentration left out as unconfirmed
Conditions: MV-4-11 cells, 48 hours

Nc1ccc(-c2cccs2)cc1NC(=O)c1ccc2c(c1)cc(C1CC1)n2CCN1CCOCC1 [ACY-1035]
RFU KRTAP10-2 (11738614_at): 11.58 RFU
